For assay [1], the target named is MALT1-GS-Ub (6-His-hMALT-1 residues 339-715 fused to ubiquitin) (Homo sapiens (Human), UniProt Q9UDY8). Briefly: MALT1 Protease Assay 1 (Assay 1), cleavage of fluorogenic tetrapeptide substrate. The format is biochemical. The note with it: MALT1-GS-Ub 300-600 nM, Ac-LVSR-AMC 100 μM, 30 min preincubation, 60 min read. How it is done:
MALT1 Protease Assay 1 (Assay 1)
(§1) MALT1 protease activity was assessed in vitro by measuring the cleavage of a fluorogenic tetrapeptide substrate.
A protein (MALT1-GS-Ub) comprising 6-His-hMALT-1 (residues 339-715), fused to ubiquitin with an 8× GGS linker, was expressed in E. coli, and purified using chitin resin to remove contaminants followed by affinity chromatography purification and size-exclusion chromatography, according to standard protocols.
Briefly, MALT1-GS-Ub (300-600 nM) was incubated with substrate (Ac-LVSR-AMC, 100 μM) in reaction buffer comprising 50 mM HEPES (pH7.0), 25 mM KCl, 0.1% (v/v) CHAPS and 1 mM TCEP.
(§2) Test compounds dissolved in DMSO were dispensed into assay plates (384-well, black, shallow ProxiPlates). 7 μl enzyme solution was added and incubated at room temperature for 30 minutes to allow compound binding to occur. 2 μl substrate solution was then added and the fluorescence (excitation 360 nm, emission 460 nm) read every 15 minutes using a suitable plate reader. Final assay DMSO concentration was 1%. Linearity over 60 minutes was confirmed, and assay signal was calculated by subtracting raw counts at time 0 from those at 60 minutes. % inhibition was calculated for each well, using no enzyme for 100% inhibition controls and no compound for 0% inhibition controls. IC50 values were calculated using GraphPad Prism using a 4-parameter non-linear regression curve fit.

In a further assay the target is FL hMALT1 enzyme (Homo sapiens (Human), UniProt Q9UDY8). Briefly: MALT1 Protease Assay 2 (Assay 2), higher sensitivity, cleavage of fluorogenic tetrapeptide substrate. The format is biochemical. As to conditions: FL hMALT1 1-10 nM, Ac-LVSR-AMC 100 μM, 0.7 M sodium citrate, 30 min preincubation, 60 min read. How it is done:
MALT1 Protease Assay 2 (Assay 2)
as §1
For a higher sensitivity assay, commercially available FL hMALT1 enzyme (Abcam, 1-10 nM) was incubated with substrate (Ac-LVSR-AMC, 100 μM) in reaction buffer comprising 50 mM HEPES (pH7.0), 25 mM KCl, 0.1% (v/v) CHAPS, 1 mM TCEP and 0.7 M sodium citrate.
as §2

Some results are limits rather than exact numbers.

Chain of MALT1-GS-Ub (6-His-hMALT-1 residues 339-715 fused to ubiquitin) (Q9UDY8 other isoform, or with tags, fused parts or gaps): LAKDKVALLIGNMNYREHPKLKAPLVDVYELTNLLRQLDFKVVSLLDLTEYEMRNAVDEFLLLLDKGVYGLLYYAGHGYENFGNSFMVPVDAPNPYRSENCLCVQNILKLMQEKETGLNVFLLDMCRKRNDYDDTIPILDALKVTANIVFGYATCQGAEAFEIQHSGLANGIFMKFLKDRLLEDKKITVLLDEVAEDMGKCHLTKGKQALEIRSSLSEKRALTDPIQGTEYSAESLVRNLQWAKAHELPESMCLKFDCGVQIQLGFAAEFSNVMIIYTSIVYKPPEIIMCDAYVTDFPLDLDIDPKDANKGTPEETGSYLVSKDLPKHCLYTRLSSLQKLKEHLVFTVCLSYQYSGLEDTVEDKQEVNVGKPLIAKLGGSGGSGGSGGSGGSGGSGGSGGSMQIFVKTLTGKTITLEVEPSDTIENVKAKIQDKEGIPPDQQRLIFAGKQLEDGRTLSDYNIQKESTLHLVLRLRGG
Chain of FL hMALT1 enzyme (Q9UDY8 whole entry): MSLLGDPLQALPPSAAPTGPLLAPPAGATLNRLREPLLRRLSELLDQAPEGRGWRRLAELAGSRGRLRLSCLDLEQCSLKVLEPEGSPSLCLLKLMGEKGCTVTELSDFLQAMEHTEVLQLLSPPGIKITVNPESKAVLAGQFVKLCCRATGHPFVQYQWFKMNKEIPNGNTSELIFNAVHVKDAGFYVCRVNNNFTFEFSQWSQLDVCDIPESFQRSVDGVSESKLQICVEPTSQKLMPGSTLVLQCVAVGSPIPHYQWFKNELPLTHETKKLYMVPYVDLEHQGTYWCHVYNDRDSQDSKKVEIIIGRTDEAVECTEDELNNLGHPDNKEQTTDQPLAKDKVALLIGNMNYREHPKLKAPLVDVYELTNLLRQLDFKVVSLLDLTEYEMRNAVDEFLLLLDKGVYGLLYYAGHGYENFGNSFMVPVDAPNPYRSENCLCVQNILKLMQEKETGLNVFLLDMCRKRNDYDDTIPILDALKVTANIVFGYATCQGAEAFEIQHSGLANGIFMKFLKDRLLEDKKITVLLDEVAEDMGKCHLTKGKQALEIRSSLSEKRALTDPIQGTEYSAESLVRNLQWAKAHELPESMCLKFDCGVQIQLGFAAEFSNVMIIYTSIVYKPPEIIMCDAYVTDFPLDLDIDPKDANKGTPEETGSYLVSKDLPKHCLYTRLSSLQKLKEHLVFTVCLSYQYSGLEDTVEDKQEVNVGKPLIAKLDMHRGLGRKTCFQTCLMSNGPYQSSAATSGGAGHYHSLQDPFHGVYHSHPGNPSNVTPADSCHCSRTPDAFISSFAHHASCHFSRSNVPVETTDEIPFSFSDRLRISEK

For `C#CC1CN(C(=O)Nc2cnc(-n3nccn3)c(Cl)c2)c2cccc(Br)c2O1` (stereo not shown) [Example 20, 8-Bromo-N-(5-chloro-6-(2H-1,2,3-triazol-2-yl)pyridin-3-yl)-2-ethynyl-2,3-dihydro-4H-benzo[b][1,4]oxazine-4-carboxamide], the IC50 in assay [1] amounted to 3.3 µM; against FL hMALT1 enzyme it was 0.59 µM.
Consider `O=C(Nc1cnc(-n2nccn2)c(Cl)c1)N1C[C@@H]2CCCN2c2c(Br)cncc21` [Example 25, (S)-1-Bromo-N-(5-chloro-6-(2H-1,2,3-triazol-2-yl)pyridin-3-yl)-6a,7,8,9-tetrahydropyrido[3,4-e] pyrrolo[1,2-a]pyrazine-5 (6H)-carboxamide], for which the figures for the IC50 (in assay [1]; at FL hMALT1 enzyme) were 1.06 µM and 0.23 µM, respectively.
For the compound `C[C@@H]1CN(C(=O)Nc2cnc(-n3nccn3)c(C(F)(F)F)c2)c2cccc(Br)c2[C@@H]1C` (relative stereo) [Example 11, cis-N-(6-(2H-1,2,3-Triazol-2-yl)-5-(trifluoromethyl)pyridin-3-yl)-5-bromo-3,4-dimethyl-3,4-dihydroquinoline-1 (2H)-carboxamide], the IC50 in assay [1] is 4.1 µM; at FL hMALT1 enzyme, 1.2 µM.
As for `O=C(Nc1cnc(-n2nccn2)c(Cl)c1)N1CC2CCCCN2c2c(Br)cncc21` (stereo not shown) [Example 28, 1-Bromo-N-(5-chloro-6-(2H-1,2,3-triazol-2-yl)pyridin-3-yl)-6,6a,7,8,9,10-hexahydro-5H-dipyrido[1,2-a: 3′,4′-e] pyrazine-5-carboxamide], the IC50 in assay [1] stood at 7.3 µM; on FL hMALT1 enzyme, 1.1 µM.
For the compound `CC1(C)Cc2c(Br)cccc2N(C(=O)Nc2cnc(-n3nccn3)c(Cl)c2)C1` [Example 15, 5-Bromo-N-(5-chloro-6-(2H-1,2,3-triazol-2-yl)pyridin-3-yl)-3,3-dimethyl-3,4-dihydroquinoline-1 (2H)-carboxamide], the IC50 was 1.3 µM in assay [1] and 0.44 µM on FL hMALT1 enzyme.
As to `O=C(Nc1cnc(-n2nccn2)c(Cl)c1)N1CC(C(F)(F)F)Oc2c(Br)cncc21` (stereo not shown) [Example 38, 8-Bromo-N-(5-chloro-6-(2H-1,2,3-triazol-2-yl)pyridin-3-yl)-2-(trifluoromethyl)-2,3-dihydro-4H-pyrido[4,3-b][1,4]oxazine-4-carboxamide], the IC50 in assay [1] is 0.73 µM; on FL hMALT1 enzyme it was 0.12 µM.
In the same order, the values of `O=C(Nc1cnc(-n2nccn2)c(Cl)c1)N1CC2(CCOC2)Oc2c(Br)cncc21` (stereo not shown) [Example 27, 8′—Bromo-N-(5-chloro-6-(2H-1,2,3-triazol-2-yl)pyridin-3-yl)-4,5-dihydro-2H-spiro [furan-3,2′-pyrido[4,3-b][1,4]oxazine]-4′ (3′H)-carboxamide] are 5 µM and 0.9 µM.
In the same order, the values of `O=C(Nc1cnc(-n2nccn2)c(C(F)(F)F)c1)N1CCCc2c(-c3nncs3)cccc21` [Example 14, N-(6-(2H-1,2,3-triazol-2-yl)-5-(trifluoromethyl)pyridin-3-yl)-5-(1,3,4-thiadiazol-2-yl)-3,4-dihydroquinoline-1 (2H)-carboxamide] are 8.5 µM and 8.2 µM.
In the case of `O=C(Nc1cnc(-n2nccn2)c(C(F)(F)F)c1)N1CCCc2c(-c3cccnc3)cccc21` [Example 8, N-(6-(2H-1,2,3-Triazol-2-yl)-5-(trifluoromethyl)pyridin-3-yl)-5-(pyridin-3-yl)-3,4-dihydroquinoline-1 (2H)-carboxamide], the values for the IC50 (in assay [1]; at FL hMALT1 enzyme) were 9.8 µM and greater than 10 µM, respectively.
For the compound `CN1c2c(Br)cncc2N(C(=O)Nc2cnc(-n3nccn3)c(Cl)c2)CC1(C)C` [Example 31, 8-Bromo-N-(5-chloro-6-(2H-1,2,3-triazol-2-yl)pyridin-3-yl)-1,2,2-trimethyl-2,3-dihydropyrido[3,4-b]pyrazine-4 (1H)-carboxamide], the IC50 in assay [1] stood at 3 µM; against FL hMALT1 enzyme it was 0.26 µM.
Regarding `N#Cc1cccc2c1CCCN2C(=O)Nc1cnc(-n2nccn2)c(Cl)c1` [Example 7, N-(5-Chloro-6-(2H-1,2,3-triazol-2-yl)pyridin-3-yl)-5-cyano-3,4-dihydroquinoline-1 (2H)-carboxamide], the figures for the IC50 (in assay [1]; against FL hMALT1 enzyme) were 6.9 µM and 1.2 µM, respectively.
With `O=C(Nc1cnc(-n2nccn2)c(Cl)c1)N1CCCc2c(Br)cncc21` [Example 17, 5-Bromo-N-(5-chloro-6-(2H-1,2,3-triazol-2-yl)pyridin-3-yl)-3,4-dihydro-1,7-naphthyridine-1 (2H)-carboxamide], the IC50 turned out to be 0.5 µM in assay [1] and 1.5 µM at FL hMALT1 enzyme.
Regarding `O=C(Nc1cnc(-n2nccn2)c(C(F)(F)F)c1)N1CCCc2c(-c3ccccc3)cccc21` [Example 12, N-(6-(2H-1,2,3-Triazol-2-yl)-5-(trifluoromethyl)pyridin-3-yl)-5-phenyl-3,4-dihydroquinoline-1 (2H)-carboxamide], the figures for the half-inhibitory concentration (IC50) (in assay [1]; against FL hMALT1 enzyme) were 2.3 µM and 0.65 µM, respectively.
For the compound `CC1(C)CN(C(=O)Nc2cnc(-n3nccn3)c(Cl)c2)c2cncc(C3CC3)c2O1` [Example 24, N-(5-Chloro-6-(2H-1,2,3-triazol-2-yl)pyridin-3-yl)-8-cyclopropyl-2,2-dimethyl-2,3-dihydro-4H-pyrido[4,3-b][1,4]oxazine-4-carboxamide], the IC50 came out at 2.5 µM in assay [1] and 0.34 µM at FL hMALT1 enzyme.
Consider `O=C(Nc1cnc(-n2nccn2)c(C(F)(F)F)c1)N1CCCc2c(-c3nccs3)cccc21` [Example 10, N-(6-(2H-1,2,3-Triazol-2-yl)-5-(trifluoromethyl)pyridin-3-yl)-5-(thiazol-2-yl)-3,4-dihydroquinoline-1 (2H)-carboxamide], for which the IC50 in assay [1] was found to be 1.5 µM; against FL hMALT1 enzyme, 1 µM.
`O=C(Nc1cnc(-n2nccn2)c(Cl)c1)N1CCCc2c(C3CC3)cncc21` [Example 22, N-(5-Chloro-6-(2H-1,2,3-triazol-2-yl)pyridin-3-yl)-5-cyclopropyl-3,4-dihydro-1,7-naphthyridine-1 (2H)-carboxamide]: the results for the IC50 (in assay [1]; on FL hMALT1 enzyme) were 4 µM and 4.7 µM, respectively.
With `O=C(Nc1cnc(-n2nccn2)c(C(F)(F)F)c1)N1CCOc2c(Br)cccc21` [Example 4, N-(6-(2H-1,2,3-Triazol-2-yl)-5-(trifluoromethyl)pyridin-3-yl)-8-bromo-2,3-dihydro-4H-benzo[b][1,4]oxazine-4-carboxamide], the IC50 in assay [1] was found to be 2.8 µM; at FL hMALT1 enzyme, 0.4 µM.
Turning to `CC1CN(C(=O)Nc2cnc(-n3nccn3)c(C(F)(F)F)c2)c2cccc(Br)c2O1` (stereo not shown) [Example 5, N-(6-(2H-1,2,3-Triazol-2-yl)-5-(trifluoromethyl)pyridin-3-yl)-8-bromo-2-methyl-2,3-dihydro-4H-benzo[b][1,4]oxazine-4-carboxamide], the results for the IC50 (in assay [1]; against FL hMALT1 enzyme) were 3.3 µM and 0.12 µM, respectively.
`O=C(Nc1cnc(-n2nccn2)c(C(F)(F)F)c1)N1CCCc2c(-c3ncco3)cccc21` [Example 9, N-(6-(2H-1,2,3-Triazol-2-yl)-5-(trifluoromethyl)pyridin-3-yl)-5-(oxazol-2-yl)-3,4-dihydroquinoline-1 (2H)-carboxamide]: the 50% inhibitory concentration (IC50) in assay [1] came to 4.6 µM; at FL hMALT1 enzyme, 2 µM.
In the case of `CC1(C)CN(C(=O)Nc2cnc(-n3nccn3)c(Cl)c2)c2cccc(Br)c2O1` [Example 13, 8-Bromo-N-(5-chloro-6-(2H-1,2,3-triazol-2-yl)pyridin-3-yl)-2,2-dimethyl-2,3-dihydro-4H-benzo[b][1,4]oxazine-4-carboxamide], the IC50 (in assay [1]; against FL hMALT1 enzyme) was 1.3 µM each time.

The values are drawn from patent publication US20250136577A1, “HETEROCYCLIC DERIVATIVES AS MALT1 INHIBITORS” (C4X Discovery Limited, priority 2022, published 2025).
